Residues, ends and D or L forms follow the SMILES beside them. *: point of attachment. Boc = CC(C)(C)OC(=O)*; Bn = c1ccc(C*)cc1
Row | SMILES | melting point [°C]
1 | CC(=O)NC12Oc3c(C(C)C)cc(C(C)C)cc3C1(O)C(=O)c1ccccc12 (stereo unspecified) | 217 to 219
2 | CC(C)n1nc(-c2sc(Nc3cccnc3)nc2-c2ccccc2)ccc1=O | 226 to 228
3 | Nc1nc(Cl)cc(OC(F)(F)F)n1 | 55 to 56
4 | CCNC(=S)C1=CC(CF)(CF)Oc2ccc(C(F)(F)F)cc21 | 65 to 67
5 | COC(=O)C(=O)c1ccc(SC)c(Cl)c1 | 67.9 to 70.2
6 | CN(c1ccc(S(C)(=O)=O)cc1)S(=O)(=O)c1cccc(NC(=O)c2ccc(S(C)(=O)=O)cc2)c1 | 213 to 215
7 | O=C(c1ccccc1)N1CCN2c3ccccc3Cn3cccc3C2C1 (stereo unspecified) | 137 to 139
8 | COC(=O)c1ccc(C=CC(=O)N2CCc3c([nH]c4ccccc34)C2c2ccc3c(c2)OCO3)cc1 (stereo unspecified) | 211
9 | COC(=O)C1(C(=O)OC)Cc2cc(Br)ccc2N1 | 113 to 155
10 | COc1cc(C)cc(OCCCSCCC(=O)O)c1 | 39 to 42
11 | CC(C)(C)OC(=O)N1CCC(NCc2cccc(NC(=O)c3ccc(F)cc3)n2)CC1 | 77.7
12 | CC(C)(c1ccc(Oc2ccc([N+](=O)[O-])cc2C(F)(F)F)cc1)c1cccc(C(C)(C)c2ccc(Oc3ccc([N+](=O)[O-])cc3C(F)(F)F)cc2)c1 | 127 to 128
13 | Cn1cc(CCNC(=O)OC(C)(C)C)c2cc(S(=O)(=O)c3ccccc3)ccc21 | 127 to 131
14 | Cc1ccc(C2CC(=O)C=C(N)C2)s1 (stereo unspecified) | 172 to 173
15 | Cc1cccc(-c2n[nH]cc2-c2ccc(F)c(-c3csc(C(C)(C)O)n3)c2)n1 | 78 to 80
16 | Cc1ccccc1-c1noc2c(Cl)c(OCC(=O)O)ccc12 | 179 to 181
17 | O=C(c1ccccc1)N1CC=C(c2c[nH]c3ccc([N+](=O)[O-])cc23)CC1 | 280 to 282
18 | Nc1ccc(Nc2ccc(S(=O)(=O)CCO)cc2[N+](=O)[O-])cc1S(=O)(=O)O | 204
19 | CS(=O)(=O)c1cccc(C(=O)O)c1O | 180
20 | COc1ccc(-c2sc3c(c2C)c(=O)c(C(C)=O)cn3Cc2ccccc2F)cc1 | 215 to 216
21 | CN=C(SC)N(C)Cc1cc(C)nc(C)c1 | 131 to 133
22 | CN(C(N)=O)C1CCCc2ccccc21 (stereo unspecified) | 160 to 163
23 | Cc1cc(NC(=O)c2ccccc2C)ccc1C(=O)O | 231 to 233
24 | N#CC1(c2ccc(Cl)cc2)C2CC3CC(C2)CC1C3 (stereo unspecified) | 132 to 133

Row | SMILES | melting point [°C]
25 | COc1ccc(-c2ccnc(-c3ccccc3)c2)cc1F | 84
26 | O=C(O)Cc1cccc2c(=O)cc(-c3ccccc3F)oc12 | 179 to 181
27 | COCCc1sc2ncnc(N)c2c1-c1ccc(N(C(N)=O)c2ccccc2C)cc1 | 217 to 219
28 | COc1cc(C)nc(NC(=O)NS(=O)(=O)c2ccccc2-c2ccccc2)n1 | 199 to 202
29 | CCCCCCCCCCCCc1ccc(N)c([N+](=O)[O-])c1 | 69 to 71
30 | Cc1ccc(C=CCC#N)cc1 | 60 to 61
31 | CN(c1cccc2cc(-c3ncc(CCC(N)=O)s3)[nH]c12)S(=O)(=O)c1cccs1 | 246 to 247
32 | O=c1c2c[nH]c3c(c-2nn1-c1ccc(Cl)cc1)CCC3 | > 350
33 | CC(C)n1cc(C=O)c(-c2ccc([N+](=O)[O-])o2)n1 | 168 to 170
34 | CC(C)(C)c1ccc(S(=O)(=O)C[N+](=O)[O-])cc1 | 90 to 91
35 | C(=C\c1nc(COc2ccc(CCCn3cnc4ccccc43)cc2)co1)/c1ccccc1 | 115 to 117
36 | COc1ccc(C(=O)NCCCCCCCCCCCCNC(=O)c2ccc(OC)cc2)cc1 | 169 to 170
37 | O=C(CCl)N1CCC(Cc2ccc(F)cc2)CC1 | 85 to 87
38 | Nn1c2c(c3ccccc3c1=O)C(=O)c1ccccc1-2 | 272 to 274
39 | O=C(NC(Cc1cccc(Cl)c1)C(=O)N1CCSC1)c1cc2cc(Cl)ccc2[nH]1 (stereo unspecified) | 188 to 190
40 | CC(c1ccccc1N1CCCCC1)C(C(N)=O)c1ccc(C(=O)N2CCOCC2)cc1 (stereo unspecified) | 148 to 150
41 | N#CN=C(NCNC(=O)c1ccc(Cl)cc1)Nc1cccnc1 | 196 to 197
42 | Cc1ccc(-c2nn3cccnc3c2CC(=O)N(C)C)cc1 | 164 to 165
43 | CCCCCCCOc1ccc(C(=O)Nc2ccccc2OCc2nnn[nH]2)cc1 | 148 to 150
44 | Cn1c2c(c(=O)[nH]c1=O)CCC2 | 250 to 251
45 | O=C(Nc1cccc(S(=O)(=O)NCc2cccnc2)c1)c1cnn2c(C(F)F)cc(-c3ccc(C(F)(F)F)cc3)nc12 | 256
46 | Fc1ccc(-c2[nH]nc(C3=CCN4CCCC4C3)c2-c2ccncc2)cc1 (stereo unspecified) | 209 to 214
47 | CC12C=CC(=O)C=C1CCC1C2C(O)CC2(C)C1CC(OCCO)C2(O)C(=O)CO (stereo unspecified) | 138 to 140
48 | N#Cc1cc(=O)cc(-c2ccccc2)o1 | 146 to 149

Row | SMILES | melting point [°C]
49 | COc1c(C(=O)NC2CN3CCC2CC3)cc(Cl)c2c1CCN2 (stereo unspecified) | 107 to 109
50 | CN(C)C(=S)Oc1ccc(S(=O)(=O)c2ccc(C#N)cc2)cc1 | 158 to 167
51 | O=C(O)CCCCC(=O)Nc1ccc(C(=O)NN=C2C(=O)Nc3ccc(I)cc32)cc1 | 286
52 | O=C1CCC(CCC(=O)OCc2ccccc2Cl)N1 (stereo unspecified) | 99 to 100
53 | CCCCCCCCCCCCCCCc1cccc(OCC#CC(=O)C(F)(F)F)c1 | 35 to 36
54 | COc1cccc(CC2CCN(C(=O)C(=O)Nc3ccc4[nH]c(=O)oc4c3)CC2)c1 | 110 to 115
55 | OC1(c2ccc(-c3cccnc3)cc2)CN2CCC1CC2 (stereo unspecified) | 172 to 173
56 | c1nc(SCC2CCCC2)n[nH]1 | 48 to 55
57 | CC(=O)Nc1cc(Oc2ccc3c(C(=O)Nc4cc(-n5cnc(C)c5)cc(C(F)(F)F)c4)cccc3c2)ncn1 | 291 to 293
58 | CCC(C)(C#N)NC(=O)Cc1c(C)cc(C)cc1C (stereo unspecified) | 155 to 157
59 | CN(C(=O)OC(C)(C)C)C1CC=C(c2c[nH]c3cc([N+](=O)[O-])ccc23)CC1 (stereo unspecified) | 208 to 210
60 | COC(=O)c1ccc(C=C(C)[N+](=O)[O-])c(Cl)c1 | 74 to 77
61 | COc1c([N+](=O)[O-])cc(Br)c2c1C(=CC#N)CC2 | 156 to 158
62 | C[C@@H]1S[C@@H](C(=O)Nc2ccc(CN3C(=O)CSC3=O)cc2)Cc2cc3c(cc2C1=O)OCO3 | 232 to 235
63 | COC(=O)C(CC(C)C)NC(=O)C(C)NC(=O)C(Cc1ccc(OCc2ccccc2)cc1)NC(=O)OC(C)(C)C (stereo not drawn) (Boc-Tyr(Bn)-Ala-Leu-OMe; configuration not given here) | 128 to 129
64 | CS(=O)(=O)C(=C1CN(C(c2ccccc2)c2ccccc2)C1)c1ccccc1 | 210
65 | CCc1nc2c(N)nc3ccccc3c2n1CC(C)C | 233 to 234
66 | COC(=O)C1C(=O)CCC1CSc1ccccc1 (stereo unspecified) | 41 to 42
67 | Nc1ccc(C(O)c2ccccn2)c(OCC(F)(F)F)c1 (stereo unspecified) | 97 to 99
68 | NC(C(=O)O)c1ccc(C=CC2CC2)[nH]1 (stereo unspecified) | 275
69 | N#CCCNC(=O)C1=CC(CF)(CF)Oc2cc(Cl)c(Cl)cc21 | 135 to 136
70 | Oc1ccccc1-c1nc(-c2ccccc2O)n(Cc2ccncc2)n1 | 197 to 199
71 | Cn1nc(-c2cccnc2)c2c(C(F)(F)F)cc(-c3cccc(CN4CCOCC4)c3)nc21 | 155

Source: a melting point compilation (Tetko et al.; mined from patent text by program, amines drawn as free bases though some values may be those of a salt)
